Columns and labels:
[1] = test system: Karpas 422 cells; test: Karpas 422 cell viability, CTG (Cell Titre Glo) assay; assay type: cell-based, human; settings: Homo sapiens; Inhibition of proliferation of Karpas 422 cells (EZH2 Y641N); viability measured Day 4, Day 7 or Day 11, time point of the tabulated values not stated
Outline: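 Karpas 422 cells (EZH2 Y641N, DLBCL) plated at 1000 cells/well in RPMI with 20% FBS, exposed to compound 10µM down to 1.5nM in 3-fold steps at 37 °C. Viability by CellTiter-Glo on Days 4, 7 and 11; Day 11 plates re-fed with fresh medium and compound on Day 7. IC50 per time point.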

[2] = test system: PRC2-mediated histone H3 methylation; test: Tri-Methyl Histone H3 (Lys 27) Sandwich ELISA in Pfeiffer cells: inhibition of PRC2-mediated histone H3 methylation; assay type: cell-based, human; settings: Homo sapiens; Inhibition of EZH2-mediated histone H3 trimethylation; Pfeiffer cells (EZH2 A677G), 96 hours incubation
Outline: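 Pfeiffer DLBCL cells (EZH2 A677G mutant) treated with 3-fold serial dilutions, 1µM to 0.15 nM final, for 96 hours at 37°C. Acid (0.4M HCl) histone extracts, neutralized, assayed by H3K27me3 sandwich ELISA with HRP/TMB read at 450 nm.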

[3] = molecular target: purified human, His-tagged PRC2 complex (Homo sapiens, UniProt O75530+Q15910); test: Hot Spot HMT assay: inhibition of PRC2 enzymatic activity (transfer of tritiated methyl from SAM to core histone, filter binding); assay type: biochemical; settings: Inhibition of PRC2-mediated enzymatic activity; 10 nM PRC2 complex, 0.05 mg/ml core histone H3, 1 uM 3H-SAM, 1 hr at 30°C
Outline: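 Five-subunit complex (His-EZH2, Flag-EED, His-SUZ12, His-AEBP2, His-RbAp48) at 10 nM with 0.05 mg/ml core histone H3, pH 8 Tris buffer, 1% DMSO; 20 min compound pre-incubation at 30°C. Started with 1 uM [3H]-SAM, 1 hr at 30°C; tritiated H3 counted by scintillation. Compounds diluted from 1.0 µM top concentration.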

purified human, His-tagged PRC2 complex, sequence (Q15910 whole entry): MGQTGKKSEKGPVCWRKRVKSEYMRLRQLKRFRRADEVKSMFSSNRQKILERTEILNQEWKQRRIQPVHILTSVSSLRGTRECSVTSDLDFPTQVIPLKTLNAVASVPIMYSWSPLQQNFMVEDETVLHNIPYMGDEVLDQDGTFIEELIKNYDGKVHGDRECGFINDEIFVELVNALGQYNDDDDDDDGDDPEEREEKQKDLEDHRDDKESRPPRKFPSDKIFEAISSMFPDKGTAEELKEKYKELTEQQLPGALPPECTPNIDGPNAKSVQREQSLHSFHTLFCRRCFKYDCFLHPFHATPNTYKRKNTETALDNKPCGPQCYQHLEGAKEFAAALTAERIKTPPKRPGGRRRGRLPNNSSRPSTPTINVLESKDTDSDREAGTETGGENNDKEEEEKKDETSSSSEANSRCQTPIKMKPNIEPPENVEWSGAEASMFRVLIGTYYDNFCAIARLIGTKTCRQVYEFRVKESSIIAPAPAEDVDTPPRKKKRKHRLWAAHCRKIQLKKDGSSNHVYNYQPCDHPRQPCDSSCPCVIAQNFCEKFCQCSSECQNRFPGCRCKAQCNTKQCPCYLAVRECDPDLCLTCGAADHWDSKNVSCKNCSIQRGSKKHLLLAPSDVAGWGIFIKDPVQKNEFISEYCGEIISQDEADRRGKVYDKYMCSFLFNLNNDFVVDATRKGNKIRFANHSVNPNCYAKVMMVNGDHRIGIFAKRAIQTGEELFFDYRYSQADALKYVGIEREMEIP
purified human, His-tagged PRC2 complex, sequence (O75530 whole entry): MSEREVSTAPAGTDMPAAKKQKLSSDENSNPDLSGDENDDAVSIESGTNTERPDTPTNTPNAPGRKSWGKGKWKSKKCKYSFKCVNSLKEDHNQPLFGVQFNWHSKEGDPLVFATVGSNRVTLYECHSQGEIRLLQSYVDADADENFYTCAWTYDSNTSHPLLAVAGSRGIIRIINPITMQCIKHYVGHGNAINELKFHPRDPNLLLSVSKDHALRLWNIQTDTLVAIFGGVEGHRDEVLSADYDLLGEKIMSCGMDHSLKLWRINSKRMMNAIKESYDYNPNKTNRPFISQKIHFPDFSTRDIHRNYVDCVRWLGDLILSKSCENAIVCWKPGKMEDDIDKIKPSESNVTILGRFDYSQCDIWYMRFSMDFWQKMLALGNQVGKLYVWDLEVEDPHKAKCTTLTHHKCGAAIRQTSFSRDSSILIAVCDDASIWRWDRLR
purified human, His-tagged PRC2 complex, sequence (Q15022 whole entry partner): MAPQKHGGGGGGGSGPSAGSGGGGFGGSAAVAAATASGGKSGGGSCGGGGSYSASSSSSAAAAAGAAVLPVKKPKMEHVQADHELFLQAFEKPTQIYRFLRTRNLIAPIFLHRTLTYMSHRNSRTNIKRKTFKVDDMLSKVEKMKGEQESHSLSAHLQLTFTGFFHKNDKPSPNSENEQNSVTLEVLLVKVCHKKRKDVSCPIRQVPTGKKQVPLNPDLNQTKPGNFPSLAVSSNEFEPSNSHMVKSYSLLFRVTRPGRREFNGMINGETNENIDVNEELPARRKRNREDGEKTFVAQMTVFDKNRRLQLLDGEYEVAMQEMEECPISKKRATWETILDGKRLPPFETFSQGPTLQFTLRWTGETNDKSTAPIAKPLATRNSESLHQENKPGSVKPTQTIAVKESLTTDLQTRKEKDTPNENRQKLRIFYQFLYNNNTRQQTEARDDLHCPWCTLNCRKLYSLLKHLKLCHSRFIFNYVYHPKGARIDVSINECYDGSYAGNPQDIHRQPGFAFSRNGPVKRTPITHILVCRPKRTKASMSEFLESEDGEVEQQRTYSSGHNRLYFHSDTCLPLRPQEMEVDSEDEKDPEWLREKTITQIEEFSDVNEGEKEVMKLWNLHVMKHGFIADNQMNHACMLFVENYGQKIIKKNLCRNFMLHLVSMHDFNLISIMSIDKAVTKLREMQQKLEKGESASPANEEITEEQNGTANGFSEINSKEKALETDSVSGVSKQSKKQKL
purified human, His-tagged PRC2 complex, sequence (Q6ZN18 whole entry partner): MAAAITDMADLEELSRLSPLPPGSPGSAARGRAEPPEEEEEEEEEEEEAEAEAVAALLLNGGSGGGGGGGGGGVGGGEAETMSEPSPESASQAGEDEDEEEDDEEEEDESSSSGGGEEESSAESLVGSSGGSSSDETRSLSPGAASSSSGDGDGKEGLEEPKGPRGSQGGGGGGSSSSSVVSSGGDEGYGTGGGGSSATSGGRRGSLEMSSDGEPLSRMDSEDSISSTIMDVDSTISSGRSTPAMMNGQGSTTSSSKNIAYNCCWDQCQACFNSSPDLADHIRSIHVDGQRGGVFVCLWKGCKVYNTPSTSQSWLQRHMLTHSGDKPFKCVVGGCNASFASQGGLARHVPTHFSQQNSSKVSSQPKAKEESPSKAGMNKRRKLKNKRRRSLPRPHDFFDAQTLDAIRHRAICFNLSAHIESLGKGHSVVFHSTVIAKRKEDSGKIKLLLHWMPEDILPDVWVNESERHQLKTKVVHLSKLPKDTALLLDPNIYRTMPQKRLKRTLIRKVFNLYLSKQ
purified human, His-tagged PRC2 complex, sequence (Q09028 whole entry partner): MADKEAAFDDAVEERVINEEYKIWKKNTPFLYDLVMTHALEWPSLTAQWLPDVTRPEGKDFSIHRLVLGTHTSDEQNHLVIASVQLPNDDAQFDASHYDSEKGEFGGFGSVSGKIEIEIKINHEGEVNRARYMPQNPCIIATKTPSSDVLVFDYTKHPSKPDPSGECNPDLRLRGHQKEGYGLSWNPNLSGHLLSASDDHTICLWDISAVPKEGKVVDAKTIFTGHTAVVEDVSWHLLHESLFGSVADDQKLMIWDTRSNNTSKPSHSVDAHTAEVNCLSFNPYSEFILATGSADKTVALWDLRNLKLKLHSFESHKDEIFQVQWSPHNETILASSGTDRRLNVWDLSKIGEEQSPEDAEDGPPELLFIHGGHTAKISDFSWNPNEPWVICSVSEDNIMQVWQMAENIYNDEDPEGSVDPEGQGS

SMILES	IC50 [1] [nM]	IC50 [2] [nM]	IC50 [3] [nM]
CNCc1ccc(-c2cnc(NCc3c(F)ccc4c3CCO4)n3cc(C#N)nc23)cc1F [Example 197, 5-(((5-fluoro-2,3-dihydrobenzofuran-4-yl)methyl)amino)-8-(3-fluoro-4-((methylamino)methyl)phenyl)imidazo[1,2-c]pyrimidine-2-carbonitrile]	≤ 250	100 to 500	< 100
N#Cc1cn2c(NCc3c(F)ccc4c3CCO4)ncc(-c3cnccn3)c2n1 [Example 68, 5-(((5-fluoro-2,3-dihydrobenzofuran-4-yl)methyl)amino)-8-(pyrazin-2-yl)imidazo[1,2-c]pyrimidine-2-carbonitrile]	≤ 250	100 to 500	< 100
Cc1ncccc1-c1cnc(NCc2c(F)ccc3occc23)n2cc(C(=O)O)nc12 [Example 3, 5-(((5-fluorobenzofuran-4-yl)methyl)amino)-8-(2-methylpyridin-3-yl)imidazo[1,2-c]pyrimidine-2-carboxylic acid]	> 500	> 500	100 to 500
Cc1cc(S(=O)(=O)N(C)C)ccc1-c1cnc(NCc2c(F)ccc3c2CCO3)n2cc(C#N)nc12 [Example 48, 4-(2-cyano-5-(((5-fluoro-2,3-dihydrobenzofuran-4-yl)methyl)amino)imidazo[1,2-c]pyrimidin-8-yl)-N,N,3-trimethylbenzenesulfonamide]	≤ 250	100 to 500	< 100
N#Cc1cn2c(NCc3c(F)ccc4c3CCO4)ncc(-c3ccc(CN4CCOCC4)cc3)c2n1 [Example 75, 5-(((5-fluoro-2,3-dihydrobenzofuran-4-yl)methyl)amino)-8-(4-(morpholinomethyl)phenyl)imidazo[1,2-c]pyrimidine-2-carbonitrile]	≤ 250	100 to 500	< 100
N#Cc1cn2c(NCc3c(F)ccc4c3CCO4)ncc(-c3ccc([C@@H]4CCCN4)cc3)c2n1 [Example 219, (S)-5-(((5-fluoro-2,3-dihydrobenzofuran-4-yl)methyl)amino)-8-(4-(pyrrolidin-2-yl)phenyl)imidazo[1,2-c]pyrimidine-2-carbonitrile]	≤ 250	100 to 500	< 100
N#Cc1cn2c(NCc3c(F)ccc4c3CCO4)ncc(-c3ccc(C(=O)N4CCOCC4)cc3)c2n1 [Example 181, 5-(((5-fluoro-2,3-dihydrobenzofuran-4-yl)methyl)amino)-8-(4-(morpholine-4-carbonyl)phenyl)imidazo[1,2-c]pyrimidine-2-carbonitrile]	≤ 250	100 to 500	< 100
N#Cc1cn2c(NCc3c(F)ccc4c3CCO4)ncc(-c3ccc(S(=O)(=O)C(F)(F)F)cc3)c2n1 [Example 82, 5-(((5-fluoro-2,3-dihydrobenzofuran-4-yl)methyl)amino)-8-(4-((trifluoromethyl)sulfonyl)phenyl)imidazo[1,2-c]pyrimidine-2-carbonitrile]	250 to 500	> 500	100 to 500
N#Cc1cn2c(NCc3c(F)ccc4c3CCO4)ncc(-c3ccc(CN4CCCC4=O)cc3)c2n1 [Example 49, 5-(((5-fluoro-2,3-dihydrobenzofuran-4-yl)methyl)amino)-8-(4-((2-oxopyrrolidin-1-yl)methyl)phenyl)imidazo[1,2-c]pyrimidine-2-carbonitrile]	≤ 250	100 to 500	< 100
Cc1ncc(F)cc1-c1cnc(NCc2c(F)ccc3c2CCO3)n2cc(C#N)nc12 [Example 62, 5-(((5-fluoro-2,3-dihydrobenzofuran-4-yl)methyl)amino)-8-(5-fluoro-2-methylpyridin-3-yl)imidazo[1,2-c]pyrimidine-2-carbonitrile]	≤ 250	100 to 500	< 100

Continued, values first:

IC50 [1] [nM]	IC50 [2] [nM]	IC50 [3] [nM]	SMILES
> 500	> 500	< 100	N#Cc1cn2c(NCc3c(F)ccc4c3CCO4)ncc(-c3ccc(-c4nnn[nH]4)cc3)c2n1 [Example 190, 8-(4-(1H-tetrazol-5-yl)phenyl)-5-(((5-fluoro-2,3-dihydrobenzofuran-4-yl)methyl)amino)imidazo[1,2-c]pyrimidine-2-carbonitrile]
> 500	> 500	> 500	Cc1cc(-c2cnc(NCc3c(F)ccc4sccc34)n3cc(C#N)nc23)n(C)n1 [Example 81, 8-(1,3-dimethyl-1H-pyrazol-5-yl)-5-(((5-fluorobenzo[b]thiophen-4-yl)methyl)amino)imidazo[1,2-c]pyrimidine-2-carbonitrile]
250 to 500	100 to 500	100 to 500	N#Cc1cn2c(NCc3c(F)ccc4c3CCO4)ncc(-c3ccc4c(c3)CCNC4)c2n1 [Example 203, 5-(((5-fluoro-2,3-dihydrobenzofuran-4-yl)methyl)amino)-8-(1,2,3,4-tetrahydroisoquinolin-6-yl)imidazo[1,2-c]pyrimidine-2-carbonitrile]
250 to 500	100 to 500	< 100	N#Cc1cn2c(NCc3c(F)ccc4c3CCO4)ncc(-c3ccc4c(c3)CCNC4=O)c2n1 [Example 172, 5-(((5-fluoro-2,3-dihydrobenzofuran-4-yl)methyl)amino)-8-(1-oxo-1,2,3,4-tetrahydroisoquinolin-6-yl)imidazo[1,2-c]pyrimidine-2-carbonitrile]
≤ 250	≤ 100	100 to 500	N#Cc1cn2c(NCc3c(F)ccc4c3CCO4)ncc(-c3ccc4c(c3)CNC4)c2n1 [Example 205, 5-(((5-fluoro-2,3-dihydrobenzofuran-4-yl)methyl)amino)-8-(isoindolin-5-yl)imidazo[1,2-c]pyrimidine-2-carbonitrile]
≤ 250	100 to 500	< 100	COC1CN(Cc2ccc(-c3cnc(NCc4c(F)ccc5c4CCO5)n4cc(C#N)nc34)cc2)C1 [Example 50, 5-(((5-fluoro-2,3-dihydrobenzofuran-4-yl)methyl)amino)-8-(4-((3-methoxyazetidin-1-yl)methyl)phenyl)imidazo[1,2-c]pyrimidine-2-carbonitrile]
≤ 250	100 to 500	< 100	CC(c1ccc(-c2cnc(NCc3c(F)ccc4c3CCO4)n3cc(C#N)nc23)cc1)N(C)C (stereo not drawn) [Example 199, 8-(4-(1-(dimethylamino)ethyl)phenyl)-5-(((5-fluoro-2,3-dihydrobenzofuran-4-yl)methyl)amino)imidazo[1,2-c]pyrimidine-2-carbonitrile]
≤ 250	100 to 500	< 100	Cn1nc(C2CC2)cc1-c1cnc(NCc2c(F)ccc3c2CCO3)n2cc(C#N)nc12 [Example 144, 8-(3-cyclopropyl-1-methyl-1H-pyrazol-5-yl)-5-(((5-fluoro-2,3-dihydrobenzofuran-4-yl)methyl)amino)imidazo[1,2-c]pyrimidine-2-carbonitrile]
≤ 250	100 to 500	< 100	CN(C)Cc1ccc(-c2cnc(NCc3c(F)ccc4c3CCO4)n3cc(C#N)nc23)c(C#N)c1 [Example 198, 8-(2-cyano-4-((dimethylamino)methyl)phenyl)-5-(((5-fluoro-2,3-dihydrobenzofuran-4-yl)methyl)amino)imidazo[1,2-c]pyrimidine-2-carbonitrile]
≤ 250	≤ 100	< 100	Cc1cc(CN(C)C)ccc1-c1cnc(NCc2c(F)ccc3c2C(O)CO3)n2cc(C#N)nc12 (stereo not drawn) [Example 207, 8-(4-((dimethylamino)methyl)-2-methylphenyl)-5-(((5-fluoro-3-hydroxy-2,3-dihydrobenzofuran-4-yl)methyl)amino)imidazo[1,2-c]pyrimidine-2-carbonitrile]
≤ 250	100 to 500	100 to 500	Cc1cc(-c2cnc(NCc3c(F)ccc4c3CCO4)n3cc(C#N)nc23)ccc1CN(C)C [Example 200, 8-(4-((dimethylamino)methyl)-3-methylphenyl)-5-(((5-fluoro-2,3-dihydrobenzofuran-4-yl)methyl)amino)imidazo[1,2-c]pyrimidine-2-carbonitrile]
> 500	> 500	< 100	N#Cc1cn2c(NCc3c(F)ccc4c3CCO4)ncc(-c3ccc(C(=O)O)nc3)c2n1 [Example 215, 5-(2-cyano-5-(((5-fluoro-2,3-dihydrobenzofuran-4-yl)methyl)amino)imidazo[1,2-c]pyrimidin-8-yl)picolinic acid]
≤ 250	100 to 500	< 100	CN(C)CCc1ccc(-c2cnc(NCc3c(F)ccc4c3CCO4)n3cc(C#N)nc23)cc1 [Example 163, 8-(4-(2-(dimethylamino)ethyl)phenyl)-5-(((5-fluoro-2,3-dihydrobenzofuran-4-yl)methyl)amino)imidazo[1,2-c]pyrimidine-2-carbonitrile]
≤ 250	100 to 500	100 to 500	N#Cc1cn2c(NCc3c(F)ccc4c3CCO4)ncc(-c3ccccn3)c2n1 [Example 146, 5-(((5-fluoro-2,3-dihydrobenzofuran-4-yl)methyl)amino)-8-(pyridin-2-yl)imidazo[1,2-c]pyrlmldlne-2-carbonltrlle]

Source: patent publication EP4043466B1, “PRC2 INHIBITORS” (Mirati Therapeutics, Inc., priority 2018, dated 2019)
